Measured values published in patent US20200331882A1, “COMPOUND FOR SIMULTANEOUSLY INHIBITING LSD1 AND HDAC TARGETS AND APPLICATION THEREOF” (PEKING UNIVERSITY SHENZHEN GRADUATE SCHOOL, priority 2018, published 2020).

Assays:
[1] = molecular target: T1, recombinant human LSD1 protein (Homo sapiens, UniProt O60341); test: In vitro LSD1 inhibitory activity, LSD1-HRP coupling reaction (Amplex Red); assay type: biochemical; details: LSD1 enzyme activity in vitro; 30 min preincubation; H3K4Me2 peptide
T1 construct: made in house; host or cells: E. coli
Description: LSD1 activity was detected by using LSD1-HRP coupling reaction. […] During the reduction of H2O2 to H2O, Amplex Red acts as an electron donor and oxidizes to Resorufin for detection of fluorescence. […] Ampliflu™ Red, peroxidase, from horseradish required for the experiment was purchased from SIGMA; H3K4Me2 substrate peptide was purchased from GL Biochemical (Shanghai) Co., Ltd.

[2] = molecular target: T2, HDAC1 (Homo sapiens, UniProt Q13547); test: In vitro HDAC1 inhibitory activity, FLUOR DE LYS HDAC1 fluorometric assay kit; assay type: biochemical; details: HDAC1 enzyme activity in vitro
T2 construct: purchased Enzo Biochem Inc
Description: The principle was shown in the following reaction formula: HDAC1 catalyzes the deacetylation of a substrate FLUOR DE LYS® Substrate (containing an acetylated side chain), the product can react with FLUOR DE LYS® Developer II to generate fluorescence (shown in the following reaction process), and the inhibitory activity of a molecule to be detected on HDAC1 can be indirectly obtained by detecting the fluorescence intensity of the product. In this experiment, 360 nm was selected as the excitation wavelength and 460 nm as the emission wavelength for detection. FLUOR DE LYS® HDAC1 fluorometric drug discovery assay kit required for experiments was purchased from Enzo Biochem Inc.
During the test, the sample was prepared according to the specific experimental conditions of blocking the HDAC1 enzyme activity of the compound of the present invention in vitro in accordance with Table 2 below.

[3] = tested on: human breast cancer cell line MDA-MB-231; test: MTT tumor cell proliferation; assay type: cell-based; details: 72 h
Description: (§1) MTT colorimetric method was used to detect the inhibitory activity of a series of compounds (i.e. ZZY-001 to ZZY-016, a total of 16 kinds) of the embodiment of the present invention on the proliferation of tumor cells in vitro. The full name of MTT is 3-(4,5-dimethyl-2-thiazolyl)-2,5-diphenyl-2-H-tetrazolium romide, which is a yellow dye also known as thiazolyl blue. […] DMSO can dissolve Formazan deposited in cells and the absorbance value can be measured with a enzyme marker at a wavelength of 490 nm. In a certain range of cell number, the production of Formazan is proportional to the number of cells, so the number of living cells can be inferred according to the measured OD value.
In the experiments of this embodiment, the selected cell lines are human breast cancer cell line MDA-MB-231 and BT-474, human colon adenocarcinoma cell HCT116, mouse colon cancer cell CT26.WT, mouse breast cancer cell 4T1. During the test, the cells in logarithmic phase and in good condition were digested with 0.25% trypsin digestion solution to make the adherent cells fall off, and the cell suspension (suspension cells without trypsin digestion) was made by counting 2-4×10^4 cells/ml. The cell suspension was inoculated on a 96-well plate at 100 μl/well and cultured in a constant temperature CO2 incubator for 24 h. Then the tested drugs were added, 100 μl/well, and cultured for 72 h. MTT was added to a 96-well plate, 20 μl/well, and reacted for 4 h in the incubator. Absorb the supernatant, add DMSO, 150 μl/well and shake for 10 min on the plate shaker. The optical density (OD value) of each well was measured by enzyme marker at the wavelength of 490 nm. […]

[4] = tested on: mouse breast cancer cell 4T1; test: MTT tumor cell proliferation; assay type: cell-based; details: 72 h
Description: as §1
(§2) The cell suspension was inoculated on a 96-well plate at 100 μl/well and cultured in a constant temperature CO2 incubator for 24 h. Then the tested drugs were added, 100 μl/well, and cultured for 72 h. MTT was added to a 96-well plate, 20 μl/well, and reacted for 4 h in the incubator. Absorb the supernatant, add DMSO, 150 μl/well and shake for 10 min on the plate shaker. The optical density (OD value) of each well was measured by enzyme marker at the wavelength of 490 nm.

[5] = tested on: human breast cancer cell line BT-474; test: MTT tumor cell proliferation; assay type: cell-based; details: 72 h
Description: as §1, §2

[6] = tested on: human colon adenocarcinoma cell HCT116; test: MTT tumor cell proliferation; assay type: cell-based
Description: as §1, §2

[7] = tested on: mouse colon cancer cell CT26.WT; test: MTT tumor cell proliferation; assay type: cell-based; details: 72 h
Description: as §1, §2

T2 sequence (Q13547 whole entry): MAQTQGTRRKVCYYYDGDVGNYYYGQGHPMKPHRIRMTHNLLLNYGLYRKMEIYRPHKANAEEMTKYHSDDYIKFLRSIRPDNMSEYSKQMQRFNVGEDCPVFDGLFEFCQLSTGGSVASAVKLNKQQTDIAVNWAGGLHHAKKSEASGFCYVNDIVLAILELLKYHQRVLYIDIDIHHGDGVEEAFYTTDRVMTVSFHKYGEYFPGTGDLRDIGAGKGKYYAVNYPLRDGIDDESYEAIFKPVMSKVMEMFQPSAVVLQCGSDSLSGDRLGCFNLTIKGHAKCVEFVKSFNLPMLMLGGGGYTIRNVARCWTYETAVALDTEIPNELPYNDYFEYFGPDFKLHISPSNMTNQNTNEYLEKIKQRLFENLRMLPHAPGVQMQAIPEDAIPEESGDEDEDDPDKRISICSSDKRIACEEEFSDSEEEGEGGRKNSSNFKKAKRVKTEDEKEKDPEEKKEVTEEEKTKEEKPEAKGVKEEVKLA

Structure (SMILES) | IC50 [1] | IC50 [2] | further results
Cc1cc(/C=C/C(=O)NO)ccc1-c1ccc(N2CCNCC2)cc1 [ZZY-001] | 1.55 µM | 0.671 µM | IC50 ([3]; Homo sapiens): 2.32 µM; IC50 ([4]; Mus musculus): 3.87 µM; IC50 ([5]; Homo sapiens): 17.8 µM; IC50 ([6]; Homo sapiens, HCT-116, 72 h): 1.54 µM; IC50 ([7]; Mus musculus): 2.21 µM
N[C@@H]1C[C@H]1c1ccccc1 (racemic) [TCP, tranylcypromine, reference compound] | – | > 100 µM | IC50 [3]: > 10 µM; IC50 [4]: > 10 µM; IC50 [5]: > 10 µM; IC50 ([6]; 72 h): > 10 µM; IC50 [7]: > 10 µM
Cc1ccc(C(=O)Nc2cc(N3CCNCC3)ccc2-c2ccc(C(=O)Nc3ccccc3N)cc2C)cc1 [ZZY-005] | 5.16 µM | 8.94 µM | –
O=C(/C=C/c1ccc(-c2ccc(-n3ccnc3)cc2)cc1)NO [ZZY-010] | 8.26 µM | 3.52 µM | –
Cc1cc(/C=C/C(=O)NO)ccc1-c1ccc(-n2ccnc2)cc1 [ZZY-009] | 1.4 µM | 2.8 µM | –
Cc1cc(/C=C/C(=O)NO)ccc1-c1ccc(N2CCCCC2)cc1 [ZZY-013] | 1.41 µM | 9.64 µM | –
Cc1cc(C(=O)Nc2ccccc2N)ccc1-c1ccc(N2CCNCC2)cc1 [ZZY-006] | 2.38 µM | 5.38 µM | –

Second part, led by results:

IC50 [1] | IC50 [2] | Structure (SMILES) | further results
1.11 µM | 9.86 µM | O=C(/C=C/c1ccc(-c2ccc(N3CCCCC3)cc2)cc1)NO [ZZY-014] | –
0.879 µM | 0.262 µM | Cc1cc(/C=C/C(=O)NO)ccc1-c1ccc(N2CCNCC2)nc1 [ZZY-015] | –
0.991 µM | 0.451 µM | O=C(/C=C/c1ccc(-c2ccc(N3CCNCC3)nc2)cc1)NO [ZZY-016] | –
0.131 µM | 0.434 µM | Cc1cc(/C=C/C(=O)NO)ccc1-c1ccc(N2CCN(C)CC2)cc1 [ZZY-011] | IC50 ([3]; Homo sapiens): 2.04 µM; IC50 ([4]; Mus musculus): 2.6 µM; IC50 ([5]; Homo sapiens): 5.9 µM; IC50 ([6]; Homo sapiens, HCT-116, 72 h): 0.728 µM; IC50 ([7]; Mus musculus): 1.05 µM
0.0161 µM | 0.942 µM | CN1CCN(c2ccc(-c3ccc(/C=C/C(=O)NO)cc3)cc2)CC1 [ZZY-012] | IC50 ([3]; Homo sapiens): 1.14 µM; IC50 ([4]; Mus musculus): 2.32 µM; IC50 ([5]; Homo sapiens): 4.21 µM; IC50 ([6]; Homo sapiens, HCT-116, 72 h): 0.469 µM; IC50 ([7]; Mus musculus): 0.737 µM
1.32 µM | 0.0716 µM | Cc1cc(/C=C/C(=O)NO)ccc1-c1ccc(N2CCNCC2)cc1NC(=O)c1ccccc1 [ZZY-002] | IC50 ([3]; Homo sapiens): 1.37 µM; IC50 ([4]; Mus musculus): 5.61 µM; IC50 ([5]; Homo sapiens): 7.56 µM; IC50 ([6]; Homo sapiens, HCT-116, 72 h): 1.29 µM; IC50 ([7]; Mus musculus): 31.2 µM
0.716 µM | 9.36 µM | O=C(/C=C/c1ccc(-c2ccc(N3CCOCC3)cc2)cc1)NO [ZZY-008] | –
0.477 µM | 1.11 µM | Cc1cc(/C=C/C(=O)NO)ccc1-c1ccc(N2CCOCC2)cc1 [ZZY-007] | –
